{
  "source": "ChEMBL document CHEMBL4665749",
  "about": "“Usnic Acid Conjugates with Monoterpenoids as Potent Tyrosyl-DNA Phosphodiesterase 1 Inhibitors” (J Nat Prod, 2020)",
  "key": {"HeLa [1]": {"tested_on": "HeLa", "assay": "Potency index, ratio of CC50 of topotecan to CC50 of compound for human HeLa cells assessed as reduction in cell viability after 3 days in presence of topotecan by fluorometric assay", "type": "functional"}, "HeLa [2]": {"tested_on": "HeLa", "assay": "Cytotoxicity against human HeLa cells assessed as reduction in cell viability after 3 days by fluorometric assay", "type": "functional", "conditions": "72 h"}, "HeLa [3]": {"tested_on": "HeLa", "assay": "Cytotoxicity against human HeLa cells assessed as reduction in cell viability after 3 days in presence of topotecan by fluorometric assay", "type": "functional", "conditions": "72 h"}, "[4]": {"target": "Tyrosyl-DNA phosphodiesterase 1 (Homo sapiens, UniProt Q9NUW8)", "sequence (Q9NUW8 whole entry)": "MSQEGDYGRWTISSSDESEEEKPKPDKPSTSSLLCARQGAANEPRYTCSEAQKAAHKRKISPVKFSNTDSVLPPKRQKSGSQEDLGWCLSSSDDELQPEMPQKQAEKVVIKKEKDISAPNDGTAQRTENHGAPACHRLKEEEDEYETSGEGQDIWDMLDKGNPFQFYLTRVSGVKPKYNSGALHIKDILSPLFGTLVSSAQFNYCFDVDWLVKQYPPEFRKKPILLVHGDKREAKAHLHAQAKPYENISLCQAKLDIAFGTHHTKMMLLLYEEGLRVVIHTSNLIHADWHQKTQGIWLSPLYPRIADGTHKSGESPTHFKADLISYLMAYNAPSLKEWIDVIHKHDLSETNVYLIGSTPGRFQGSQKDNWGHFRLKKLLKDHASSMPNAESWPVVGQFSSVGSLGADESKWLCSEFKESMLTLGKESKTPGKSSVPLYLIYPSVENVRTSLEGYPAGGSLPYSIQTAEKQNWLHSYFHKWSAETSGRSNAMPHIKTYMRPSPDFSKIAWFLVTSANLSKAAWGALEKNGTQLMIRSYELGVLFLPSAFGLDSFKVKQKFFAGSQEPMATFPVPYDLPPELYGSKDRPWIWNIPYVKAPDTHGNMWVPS", "assay": "Inhibition of recombinant TDP1 (unknown origin) expressed in Escherichia coli using 5'-FAM/3'-BHQ1 tagged oligonucleotide as substrate by fluorescence assay"}},
  "data": [
    {"smiles": "C=C(C)[C@H]1CC=C(/C=N\\Nc2nc(-c3c(O)c(C)c(O)c4c3OC3=CC(O)=C(C(C)=O)C(=O)[C@@]34C)cs2)CC1", "values": [
      {"measurement": "Ratio", "setting": "HeLa [1]", "result": 3.8},
      {"measurement": "CC50", "setting": "HeLa [2]", "result": 20, "unit": "µM"},
      {"measurement": "CC50", "setting": "HeLa [3]", "result": 1.2, "unit": "µM"},
      {"measurement": "IC50", "setting": "[4]", "result": 0.027, "unit": "µM"}
    ]},
    {"smiles": "CC(=O)C1=C(O)C=C2Oc3c(-c4csc(NN=C5C=C(C)[C@H]6C[C@@H]5C6(C)C)n4)c(O)c(C)c(O)c3[C@@]2(C)C1=O", "note": "(mixture of isomers)", "values": [
      {"measurement": "Ratio", "setting": "HeLa [1]", "result": 1.3},
      {"measurement": "CC50", "setting": "HeLa [2]", "result": 20, "unit": "µM"},
      {"measurement": "CC50", "setting": "HeLa [3]", "result": 3.5, "unit": "µM"},
      {"measurement": "IC50", "setting": "[4]", "result": 0.046, "unit": "µM"}
    ]},
    {"smiles": "CCCCCCCC=NNc1nc(-c2c(O)c(C)c(O)c3c2OC2=CC(O)=C(C(C)=O)C(=O)[C@@]23C)cs1", "values": [
      {"measurement": "CC50", "setting": "HeLa [2]", "result": 20, "unit": "µM"},
      {"measurement": "IC50", "setting": "[4]", "result": 0.088, "unit": "µM"}
    ]},
    {"smiles": "CC[C@@]1(O)C(=O)OCc2c1cc1n(c2=O)Cc2cc3c(CN(C)C)c(O)ccc3nc2-1", "note": "[TOPOTECAN]", "values": [
      {"measurement": "CC50", "setting": "HeLa [2]", "result": 4.5, "unit": "µM"}
    ]},
    {"smiles": "CC(=O)C1=C(O)C=C2Oc3c(-c4csc(NN=CCC(C)CCC=C(C)C)n4)c(O)c(C)c(O)c3[C@@]2(C)C1=O", "note": "(stereo not given in full)", "values": [
      {"measurement": "Ratio", "setting": "HeLa [1]", "result": 7.1},
      {"measurement": "CC50", "setting": "HeLa [2]", "result": 20, "unit": "µM"},
      {"measurement": "CC50", "setting": "HeLa [3]", "result": 0.63, "unit": "µM"},
      {"measurement": "IC50", "setting": "[4]", "result": 0.0164, "unit": "µM"}
    ]},
    {"smiles": "CC(=O)C1=C(O)C=C2Oc3c(-c4csc(N/N=C5/C[C@H]6CC[C@]5(C)C6(C)C)n4)c(O)c(C)c(O)c3[C@@]2(C)C1=O", "values": [
      {"measurement": "Ratio", "setting": "HeLa [1]", "result": 1.7},
      {"measurement": "CC50", "setting": "HeLa [2]", "result": 20, "unit": "µM"},
      {"measurement": "CC50", "setting": "HeLa [3]", "result": 2.7, "unit": "µM"},
      {"measurement": "IC50", "setting": "[4]", "result": 0.031, "unit": "µM"}
    ]},
    {"smiles": "CC(=O)C1=C(O)C=C2Oc3c(-c4csc(N/N=C\\C5=C[C@@H]6C[C@H](C5)C6(C)C)n4)c(O)c(C)c(O)c3[C@@]2(C)C1=O", "values": [
      {"measurement": "Ratio", "setting": "HeLa [1]", "result": 1.7},
      {"measurement": "CC50", "setting": "HeLa [2]", "result": "> 100", "unit": "µM"},
      {"measurement": "CC50", "setting": "HeLa [3]", "result": 2.7, "unit": "µM"},
      {"measurement": "IC50", "setting": "[4]", "result": 0.045, "unit": "µM"}
    ]},
    {"smiles": "CC(=O)C1=C(O)C=C2Oc3c(-c4csc(NN=CCC(C)CCCC(C)(C)O)n4)c(O)c(C)c(O)c3[C@@]2(C)C1=O", "note": "(stereo not given in full)", "values": [
      {"measurement": "CC50", "setting": "HeLa [2]", "result": 20, "unit": "µM"},
      {"measurement": "IC50", "setting": "[4]", "result": 0.139, "unit": "µM"}
    ]}
  ]
}
